Measured values reported in publication PMC11678766, “Identification of Novel Inhibitors of Starch Excess 4 (SEX4)” (Life, 2024).

Experiments:
Format in all cases: biochemical
SEX4 [1] = molecular target: T1, SEX4 (Arabidopsis thaliana, UniProt Q9FEB5); experiment: Phosphatase assay against pNPP, SEX4; details: for Inhibition model, pNPP assay, SEX4: determined by steady-state kinetic measurements
T1 construct: gift from Dr. Gentry's group, University of Kentucky College of Medicine
T1 sequence (Q9FEB5 90-379 limits assumed): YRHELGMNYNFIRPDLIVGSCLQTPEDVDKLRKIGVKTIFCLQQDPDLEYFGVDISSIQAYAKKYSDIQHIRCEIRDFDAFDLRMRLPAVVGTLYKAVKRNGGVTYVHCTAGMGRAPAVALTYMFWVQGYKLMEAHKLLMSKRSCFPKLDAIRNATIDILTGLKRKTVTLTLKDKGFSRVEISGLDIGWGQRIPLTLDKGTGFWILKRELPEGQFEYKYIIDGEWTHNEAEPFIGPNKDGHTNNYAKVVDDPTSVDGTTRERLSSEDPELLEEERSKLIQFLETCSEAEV
Protocol: (§1) The Arabidopsis thaliana SEX4 lacking the first 89 amino acids (Δ89-SEX4) and LSF2 proteins were kindly provided by Dr. Gentry’s group at the University of Kentucky College of Medicine (Lexington, KY, USA). para-nitrophenyl phosphate disodium salt hexahydrate (pNPP), Malachite green oxalate salt, ammonium molybdate tetrahydrate, and amylopectin from potato starch were purchased from Sigma-Aldrich. Absorbance was measured on a Beckman Coulter (Brea, CA, USA) DU 700 Series UV/Vis Spectrophotometer.
(§2) The phosphatase activity of SEX4 or LSF2 against pNPP in the presence or absence of an inhibitor was measured in this assay. The reaction (20 μL of total volume) of A. thaliana SEX4 or LSF2 was performed in the reaction mixture containing 1~2 μg SEX4 or LSF2, 1X assay buffer pH 5.5 (20 mM sodium acetate, 10 mM bis-Tris, 10 mM Tris, pH with HCl), 5 mM Dithiothreitol (DTT), and 50 mM pNPP (Sigma-Aldrich, Wien, Austria). It was incubated at 37 °C for 10 min with or without an inhibitor. The reaction was terminated by adding 80 μL of 0.25 N NaOH, and absorbance was measured at 410 nm.
(§3) The steady-state kinetic parameters were determined by varying substrate concentrations (pNPP 0.5–50 mM; amylopectin 5–45 μg) with or without an inhibitor. The data were fitted by nonlinear regression to the Michaelis–Menten equation using GraphPad PRISM 9.0 software to derive KM and kcat values. […] Inhibition constants (Ki) and inhibition types were determined by varying substrate concentrations in the absence of an inhibitor and in the presence of an inhibitor at the IC50 concentration.
(§4) The process of finding an inhibitor proceeded as follows (Figure 1). […] Then, reproduction experiments were performed with these compounds to select candidate substances. […] In order to assess any difference in selectivity between SEX4 and LSF2 for the selected candidates, the IC50 values of LSF2 were obtained through the pNPP and amylopectin assays and compared with those of SEX4.
(§5) The IC50 values were calculated directly from regression curves using GraphPad PRISM software. The IC50 graph was fitted to the Logistic Equation.

SEX4 [2] = molecular target: T1, SEX4; experiment: Phosphatase assay against amylopectin, SEX4; details: for Selectivity between SEX4 and LSF2: comparison of IC50 values for SEX4 and LSF2; for Inhibition model, amylopectin assay, SEX4: determined by steady-state kinetic measurements
Protocol: as §1
(§6) The phosphatase activity of SEX4 or LSF2 toward amylopectin in the absence or presence of an inhibitor was measured in a reaction mixture with 2 μg SEX4 or LSF2 at 37 °C in 20 μL volume. The reaction mixture contained 100 mM sodium acetate, 50 mM bis-Tris, 50 mM Tris (pH 6.5), 10 mM DTT, and 45 μg amylopectin with or without an inhibitor. […] The release of free inorganic phosphate was determined by measuring the absorbance at 620 nm and the K2HPO4 standard curve.
as §3, §4, §5

LSF2 [3] = molecular target: T2, LSF2 (Arabidopsis thaliana, UniProt Q9SRK5); experiment: Phosphatase assay against pNPP, LSF2
T2 construct: gift from Dr. Gentry's group, University of Kentucky College of Medicine
T2 sequence (Q9SRK5 62-282): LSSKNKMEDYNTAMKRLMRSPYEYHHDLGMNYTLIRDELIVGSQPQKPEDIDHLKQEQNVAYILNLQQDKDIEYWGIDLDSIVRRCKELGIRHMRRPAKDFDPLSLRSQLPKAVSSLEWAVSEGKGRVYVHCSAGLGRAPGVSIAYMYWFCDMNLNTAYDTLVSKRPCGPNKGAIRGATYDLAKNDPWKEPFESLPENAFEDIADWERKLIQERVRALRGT
Protocol: as §1, §2, §3, §4

LSF2 [4] = molecular target: T2, LSF2; experiment: Phosphatase assay against amylopectin, LSF2
Protocol: as §1, §6, §3, §4

[5] = 50 mM pNPP, inhibitor 0–0.2 mM, average ± standard error of three measurements, read-out: IC50, pNPP assay, SEX4
[6] = pNPP 0.5–50 mM, inhibitor at IC50 concentration, average ± standard error of three measurements, read-out: Ki, pNPP assay, SEX4
[7] = 45 μg amylopectin, inhibitor 0–0.2 mM, average ± standard error of three measurements, read-out: IC50, amylopectin assay, SEX4
[8] = amylopectin 5–45 μg, inhibitor at IC50 concentration, average ± standard error of three measurements, read-out: Ki, amylopectin assay, SEX4
[9] = average ± standard error of three measurements, read-out: IC50, pNPP assay, LSF2
[10] = not determined with the maximum concentration of candidate compounds, read-out: IC50, amylopectin assay, LSF2

## O=C1C=CC(=O)c2c(O)ccc(O)c21 [Compound F09, Naphthazarin]
SEX4 [1]
  IC50: 15.83 ± 0.018 µM
  Ki: 39.81 ± 0.026 µM
  Inhibition model, pNPP assay, SEX4: Mixed-model
SEX4 [2]
  IC50: 7.49 ± 0.016 µM
  Ki: 16.42 ± 0.012 µM
  Selectivity between SEX4 and LSF2: selective for SEX4
  Inhibition model, amylopectin assay, SEX4: Uncompetitive
LSF2 [3]
  IC50: 23.97 ± 0.028 µM
LSF2 [4]
  IC50: > 50 µM

## Cc1c(O)nc2[nH]c(=O)sc2c1C [Compound H03, Thiazolo[4,5-b]pyridin-2(3H)-one, 5-hydroxy-6,7-dimethyl]
SEX4 [1]; [5]
  IC50: 39.58 ± 0.016 µM
SEX4 [1]
  Inhibition model, pNPP assay, SEX4: Uncompetitive
SEX4 [1]; [6]
  Ki: 42.34 ± 0.037 µM
SEX4 [2]; [7]
  IC50: 13.05 ± 0.024 µM
SEX4 [2]; [8]
  Ki: 29.84 ± 0.025 µM
SEX4 [2]
  Inhibition model, amylopectin assay, SEX4: Competitive
LSF2 [3]; [9]
  IC50: 49.58 ± 0.047 µM

## CCCc1c(O)nc2[nH]c(=O)sc2c1C [Compound D04, Thiazolo[4,5-b]pyridin-2(3H)-one, 5-hydroxy-7-methyl-6-propyl]
SEX4 [1]; [5]
  IC50: 21.6 ± 0.008 µM
SEX4 [1]
  Inhibition model, pNPP assay, SEX4: Uncompetitive
SEX4 [1]; [6]
  Ki: 25.41 ± 0.012 µM
SEX4 [2]; [7]
  IC50: 57.33 ± 0.34 µM
SEX4 [2]; [8]
  Ki: 28.31 ± 0.014 µM
SEX4 [2]
  Inhibition model, amylopectin assay, SEX4: Competitive
LSF2 [3]; [9]
  IC50: 44.82 ± 0.022 µM

## CC(C)=CCc1c(-c2ccc(O)cc2O)oc2c(C3C=C(C)CC(C(=O)c4ccc(O)cc4O)C3c3ccc(O)cc3O)c(O)cc(O)c2c1=O (stereo not shown) [Compound H08, Moracenin B]
SEX4 [1]; [5]
  IC50: 18.69 ± 0.026 µM
SEX4 [1]
  Inhibition model, pNPP assay, SEX4: Uncompetitive
SEX4 [1]; [6]
  Ki: 20.84 ± 0.023 µM
SEX4 [2]; [7]
  IC50: 16.49 ± 0.051 µM
SEX4 [2]; [8]
  Ki: 31.12 ± 0.027 µM
SEX4 [2]
  Inhibition model, amylopectin assay, SEX4: Uncompetitive
LSF2 [3]; [9]
  IC50: 22.92 ± 0.025 µM
LSF2 [4]; [10]
  IC50: > 50 µM

## O=C(O)c1cc(O)c2c(c1)[C@@H]([C@@H]1c3cc(C(=O)O)cc(O)c3C(=O)c3c(OC4OC(CO)C(O)C(O)C4O)cccc31)c1cccc(OC3OC(CO)C(O)C(O)C3O)c1C2=O (stereo partly shown) [Compound G11, Sennoside]
SEX4 [1]; [5]
  IC50: 25.75 ± 0.017 µM
SEX4 [1]
  Inhibition model, pNPP assay, SEX4: Uncompetitive
SEX4 [1]; [6]
  Ki: 33.87 ± 0.019 µM
SEX4 [2]; [7]
  IC50: 9.72 ± 0.008 µM
SEX4 [2]; [8]
  Ki: 7.81 ± 0.005 µM
SEX4 [2]
  Selectivity between SEX4 and LSF2: selective for SEX4
  Inhibition model, amylopectin assay, SEX4: Competitive
LSF2 [3]; [9]
  IC50: 23.03 ± 0.029 µM
LSF2 [4]; [10]
  IC50: > 50 µM

## CCCCCC/C=C\CCCCCCCc1cccc(O)c1C(=O)O [Compound F05, Ginkgolic acid]
SEX4 [1]
  IC50: 5.18 ± 0.014 µM
  Inhibition model, pNPP assay, SEX4: Uncompetitive
SEX4 [1]; SEX4 vs LSF2
  IC50 for SEX4 compared with that of LSF2, pNPP assay: approximately four times lower
SEX4 [1]; [6]
  Ki: 6.87 ± 0.007 µM
SEX4 [2]; [7]
  IC50: 21.1 ± 0.021 µM
SEX4 [2]; [8]
  Ki: 20.81 ± 0.021 µM
SEX4 [2]
  Inhibition model, amylopectin assay, SEX4: Uncompetitive
LSF2 [3]; [9]
  IC50: 21.26 ± 0.008 µM
LSF2 [4]; [10]
  IC50: > 50 µM

## O=C(OCC1OC(OC(=O)c2cc(O)c(O)c(O)c2)C(OC(=O)c2cc(O)c(O)c(O)c2)C(OC(=O)c2cc(O)c(O)c(O)c2)C1OC(=O)c1cc(O)c(O)c(O)c1)c1cc(O)c(O)c(O)c1 [Compound G07, Penta-O-gallolyl-β-D-glucose]
SEX4 [1]; read-out: IC50, pNPP assay, SEX4
  IC50: 30.91 ± 0.021 µM
SEX4 [1]; read-out: Ki, pNPP assay, SEX4
  Ki: 37.31 ± 0.026 µM
SEX4 [2]; read-out: IC50, amylopectin assay, SEX4
  IC50: 38.61 ± 0.022 µM
SEX4 [2]; read-out: Ki, amylopectin assay, SEX4
  Ki: 46.4 ± 0.032 µM
LSF2 [3]; [9]
  IC50: 13.39 ± 0.036 µM
LSF2 [4]; [10]
  IC50: > 50 µM
